Results as given in a melting point compilation (Tetko et al.; mined from patent text by program, amines drawn as free bases though some values may be those of a salt).

SMILES	melting point [°C]
Cc1nc(Cl)c(C#N)c(C)c1-c1ccccc1	118 to 123
CC(C)COc1ccccc1Nc1ncc(C(=O)O)c(=O)[nH]1	213 to 215
Cc1oc(-c2ccccc2)nc1COc1ccc(CON=C(CC(N)=O)c2ccccc2)cc1	164 to 165
COC(=O)c1cnco1	35 to 50
CSC(=NC#N)Nc1ccc(C#N)cc1	220 to 225
COc1cc(C=CCn2cncn2)ccc1OCc1ccccc1	70 to 72
Cc1[nH][nH]c(=O)c1Cc1ccc2ccccc2c1	240 to 244
Cc1cnn(C(C)(C)C(=O)N(C)C)c1-c1ccccc1	136 to 139
CC(=O)OCC1OC(OC2C(COC(C)=O)OC(OCCBr)C(OC(C)=O)C2OC(C)=O)C(OC(C)=O)C(OC(C)=O)C1OC(C)=O (configuration not stated)	151 to 152
O=C1NC(C(=O)NCCO[N+](=O)[O-])C(c2cccs2)S1 (configuration not stated)	120 to 122
Clc1ccc2c(NCCCCCCCCCNc3ncnc4cc(Cl)ccc34)ncnc2c1	159 to 162
Cc1ccc(S(=O)(=O)CS(C)(=O)=O)cc1	164 to 165
CCCC(CCC)C(=O)N[C@H](C(=O)N[C@H](CO)Cc1c[nH]c2ccccc12)[C@@H](C)CC	190 to 191
CCOC(=O)c1cn(NCC(=O)OC(C)(C)C)c2c(F)c(F)c(F)cc2c1=O	99.5 to 102
Cc1cc(C(O)(c2ccc3c(cnn3-c3ccc(F)cc3)c2)C(F)(F)F)cn(C)c1=O (configuration not stated)	> 200
CCCO[C@@H](Cc1ccc(OCCc2nc(-c3ccc(-c4ccccc4)cc3)oc2C)c2ccsc12)C(=O)O	147 to 151
CNc1c(S(=O)(=O)C(F)(F)F)c(C#N)nn1-c1c(Cl)cc(C(F)(F)F)cc1Cl	227

SMILES	melting point [°C]
N#Cc1c(S(=O)(=O)C(F)(F)C(F)Cl)[nH]c2ccccc12 (configuration not stated)	164 to 167
Cc1ccc2ccn3c(C(F)(F)F)nnc3c2c1	205 to 206
CCOCN(C(=O)N(COCc1ccccc1)c1nc(OCC(F)(F)F)cc(OCC(F)(F)F)n1)c1ccc(C(F)(F)F)cc1	62 to 65
CCS(=O)(=O)c1cnc2c(c1)nc(CC(C)(C)C)n2CC1CCOCC1	191
CCOC(=O)c1cnc2ccc(OC)cc2c1O	> 260
C#CCS(=O)(=O)c1cccc([N+](=O)[O-])c1	250 to 255
CC(C)n1nc(-c2sc(C(N)=S)nc2-c2ccccc2)ccc1=O	> 250
CCOC(=O)c1c(SCc2ccc(OC)cc2)nc2c(F)c(F)c(F)cc2c1O	174 to 176
CC(C)(CO)NC(=O)c1nn(-c2ccc(F)cc2F)c2c1C1CCC2CC1	128 to 131
Cc1c(NC(=O)CC(C)(C)C)cc2c(c1C)OC(C)(C)C2Nc1ccccc1 (configuration not stated)	151 to 152
Cc1[nH]cnc1CSCCNc1[nH]cc(CCc2ccccc2)c1[N+](=O)[O-]	186 to 187
Cc1cc(-c2cc(C(F)(F)F)n3ncc(-c4nc(-c5cccc(S(N)(=O)=O)c5)no4)c3n2)ccc1C(F)(F)F	270
CCN(CC)c1cccc(-c2ccnc3c(C(=O)c4cccs4)cnn23)c1	102 to 104
Cn1ccnc1Sc1ccc2[nH]nc(Nc3nccs3)c2c1	> 250
CCCCCCC(C)(C)c1cc(OCc2ccccc2)c(C2=C(CC(=O)O)CCC(C)C2)c(OCc2ccccc2)c1 (configuration not stated)	69 to 70
COC(=O)c1c[nH]c(=O)c2ccccc12	258 to 260
CC1COc2c(F)c(F)cc3c(=O)[nH]c(=O)n1c23 (configuration not stated)	259 to 261

Other lines, results leading:

melting point [°C]	SMILES
73 to 74	NC(=O)C1=C(NCc2ccccc2)CCCC1
76 to 77	COc1cc(C(C)=O)cc(OC)c1OCCOc1ccc2ccccc2c1
184 to 186	O=C(Cc1cccc(Br)c1)Nc1cccc(C(=O)NO)c1
119 to 121	Nc1ccc(OCCCCN2C(=O)c3ccccc3C2=O)cc1
93 to 96	CN1CCN(c2cc(Cl)cc3c2c(=O)n(Cc2ccc(N)cc2)c(=O)n3Cc2ccccc2)CC1
135 to 137	O=C(CCCN1CCC(Cc2ccccc2)CC1)c1ccc2c(c1)Cc1cc(C(=O)CCCN3CCC(Cc4ccccc4)CC3)ccc1-2
245 to 247	Cc1nn(-c2ccc(F)cc2F)cc1C(=O)O
110 to 112	CC(=O)N1CCc2ccc(C(=O)CCC(=O)N3CCC(c4ccc(Cl)cc4)CC3)cc2CC1
106	COC(=O)C1CCn2c1cc(Cl)c2C(=O)c1ccccc1 (configuration not stated)
140	Cc1cccc(NC(=O)NCC(=O)N(CC(=O)OC(C)(C)C)c2cccc(C(F)(F)F)c2)c1
158 to 160	CC(=O)NCC1CN(c2ccc(N3CCC(n4cc(C5(C)CO5)nn4)CC3)c(F)c2)C(=O)O1 (configuration not stated)
166	CN(C)C(=O)CCc1c(-c2ccccc2)n(C)c(=O)c2ccccc12
90 to 95	COC(=O)C(NS(=O)(=O)c1ccc(-c2ccc(NC(=O)c3oc4cccc(C(O)CO)c4c3C)cc2)cc1)C(C)C (configuration not stated)
> 300	Cn1c(=O)c2nc(-c3ccc(/C=C/C(=O)O)cc3)[nH]c2n(Cc2ccccc2)c1=O
98	O=S1(=O)N(CCCN2CCN(c3ccc(F)cc3)CC2)c2cccc3c2N1CCC3
178 to 180	Cc1c(SCCN2CCOCC2)ccnc1CSc1nc2ccccc2n1CC(N)=O
85 to 87	Cc1ccccc1OC(=O)N1CCCC1=O

melting point [°C]	SMILES
219 to 220	O=C(Nc1ccc(N2CCN(C(=O)Nc3ccc(OCCO)cc3C(F)(F)F)CC2)cc1)Nc1ccccc1F
233 to 235	CC(CCC(N)=O)C1CC=C2C3=C(CCC21C)C1(C)CCC(O)C(C)(C)C1CC3 (configuration not stated)
125	CCCC(=O)Oc1cc(-c2nc3cc(F)ccc3s2)ccc1OC
115 to 118	CCCc1c(OCCCS(=O)(=O)c2ccc(CC(=O)OC)c(Cl)c2Cl)ccc(C(C)=O)c1O
260	CN(C)C(=O)N[C@H]1CC[C@H](CCN2CCN(c3nccc4c3CCO4)CC2)CC1
130 to 135	CC(=O)CC(O)c1ccc(-c2ccc(N3C[C@H](Cn4ccnn4)OC3=O)cc2F)cn1 (some centres not stated)
178 to 180	O=C(/C=C/C=C/C(=O)NCCCOc1cccc(CN2CCCC2)c1)NCCCOc1cccc(CN2CCCC2)c1
241 to 244	O=C(C=C(O)c1ccccc1O)c1cn(S(=O)(=O)c2ccccc2)c2ccc(Cl)cc12
90.8	CCc1cc(Cl)c(OC)c(C(=O)N[C@H]2CCN(CCCC(=O)N3CCCC3)C[C@H]2OC)c1O (relative stereo)
157 to 158	O=C(O)Cc1ccc(CCNC(=O)c2ccccc2)cc1
49 to 54	CC1(C)c2ccc(C(F)CN3CCN(c4nsc5ccccc45)CC3)cc2C(C)(C)C1O (configuration not stated)
102	O=C(OCc1ccc(-c2ccccc2)cc1)c1cccc(CCl)c1
143 to 145	O=C(C=Cc1cccnc1)NCCCCC1CCN(C(Br)(c2ccccc2)C2CCCCC2)CC1 (configuration not stated)
277 to 279	Cc1nn(-c2ccsc2)c(=O)cc1-c1ccc(OC2CCN(C3CCC3)CC2)cc1
140	CCCCOCCOc1ccc(-c2ccc(N(C)Cc3cnn(C)c3)c(C=C(C)C(=O)O)c2)cc1
134 to 135	CN(C)c1ccc(C=CC(=O)c2ccc3c(c2)CCCC3)cc1
